Experimental data taken from patent US7851623B2, “Chemical process” (AstraZeneca AB, priority 2006, dated 2010).

Experiments:
[1] = tested on: HUVEC; assay: HUVEC assay, basal endothelial cell proliferation; assay type: cell-based; conditions: Homo sapiens, basal (unstimulated) proliferation, read-out: IC50 for inhibition of basal endothelial cell proliferation
[2] = tested on: HUVEC; assay: HUVEC assay, VEGF-stimulated endothelial cell proliferation; assay type: cell-based; conditions: Homo sapiens, read-out: IC50 for inhibition of VEGF-stimulated endothelial cell proliferation
[3] = tested on: tumour models; conditions: once-daily oral administration; cited from earlier work
[4] = tested on: Calu-6 tumour xenograft; assay: in vivo solid tumour model (WO 00/47212), Calu-6 tumour xenograft growth; conditions: once-daily oral, 28 days

Q: For COc1cc2c(Oc3ccc4[nH]c(C)cc4c3F)ncnc2cc1OCCCN1CCCC1 [AZD2171, 4-[(4-fluoro-2-methyl-1H-indol-5-yl)oxy]-6-methoxy-7-[3-(pyrrolidin-1-yl)propoxy]quinazoline], which IC50 [1] is on record?
A: The IC50 was > 500 nM.

Q: And the IC50 [2]?
A: The IC50 was 0.4 ± 0.2 nM.

Q: And the “anti-tumour activity in a range of models” value [3]?
A: Its value is “broad-spectrum anti-tumour activity”.

Q: What about the “inhibition of growth of Calu-6 tumour xenograft” value (“inhibition” below) ([4]; 1.5 mg/kg/day, P<0.01 one-tailed t test) of the same molecule?
A: The value was 49%.

Q: And the “inhibition” value ([4]; 3 mg/kg/day, P<0.0001 one-tailed t test)?
A: Its value is 69%.

Q: What about the “inhibition” value ([4]; 6 mg/kg/day, P<0.0001 one-tailed t test) of the same molecule?
A: Its value is 91%.
